Assay results from paper PMC9907135 (Proceedings of the National Academy of Sciences of the …, 2022).
Bridge positions count the residues as written; N and C are the ends. Square brackets hold non-standard residues; d marks the D form. Peptide text beside a SMILES is read from it. * marks the point of attachment. 5FAM = O=C1OC2(c3ccc(O)cc3Oc3cc(O)ccc32)c2ccc(C(=O)*)cc21; R8 = C=CCCCCCC[C@@](C)(N)C(=O)O; S5 = C=CCCC[C@](C)(N)C(=O)O; Nle = CCCC[C@H](N)C(=O)O

What was measured:
Expi293 cells [1] = conditions: percentage of Helicons in cells after treatment and wash; Expi293 cells 1x10^6 cells/mL, 22 hours, 37°C; washed twice with DPBS; MS quantitation, single-point calibration; n=2, mean ± SD
Expi293 cells [2] = conditions: luminescence at Tfinal (22 hours) divided by Tinitial, measure of ATP levels, reflective of cell health

## CC[C@H](C)[C@H](NC(=O)[C@H](Cc1ccc(O)cc1)NC(=O)[C@H](CCC(N)=O)NC(=O)[C@]1(C)CCCC=CCCCCCC[C@@](C)(NC(=O)[C@H](Cc2c[nH]cn2)NC(=O)[C@@H](NC(=O)[C@@H](NC(C)=O)[C@@H](C)CC)[C@@H](C)CC)C(=O)N[C@@H](Cc2ccc(O)cc2)C(=O)N[C@@H](CCC(=O)O)C(=O)N[C@@H](C)C(=O)N[C@@H](C)C(=O)N[C@@H](Cc2ccccc2)C(=O)N[C@@H](Cc2ccccc2)C(=O)N1)C(N)=O [FP08012] (Ac-IIH[R8]YEAAFF[S5]QYI-NH2; staple 4-11)
Expi293 cells [1]
  Helicon in cells ± SD (%): 5.4 ± 0.9%
Expi293 cells [2]
  CellTiter-Glo fold change ± SD: 1.1 ± 0.04

## CCCC[C@H](NC(=O)[C@H](Cc1ccc(O)cc1)NC(=O)[C@H](CCC(N)=O)NC(=O)[C@]1(C)CCCC=CCCCCCC[C@@](C)(NC(=O)[C@H](CCC(=O)O)NC(=O)[C@H](CC(C)C)NC(=O)[C@@H](NC(C)=O)[C@@H](C)CC)C(=O)N[C@@H](Cc2ccc(O)cc2)C(=O)N[C@@H](CCC(=O)O)C(=O)N[C@@H](C)C(=O)N[C@@H](C)C(=O)N[C@@H](Cc2ccccc2)C(=O)N[C@@H](CCC(=O)O)C(=O)N1)C(N)=O [FP08017] (Ac-ILE[R8]YEAAFE[S5]QY[Nle]-NH2; staple 4-11)
Expi293 cells [1]
  Helicon in cells ± SD (%): 0.6 ± 0.1%
Expi293 cells [2]
  CellTiter-Glo fold change ± SD: 1.2 ± 0.01

## CCCC[C@H](NC(=O)[C@H](Cc1ccc(O)cc1)NC(=O)[C@H](CCC(N)=O)NC(=O)[C@]1(C)CCCC=CCCCCCC[C@@](C)(NC(=O)[C@H](CCC(=O)O)NC(=O)[C@H](CC(C)C)NC(=O)[C@@H](NC(C)=O)[C@@H](C)CC)C(=O)N[C@@H](Cc2ccc(O)cc2)C(=O)N[C@@H](CCC(=O)O)C(=O)N[C@@H](C)C(=O)N[C@@H](C)C(=O)N[C@@H](Cc2ccccc2)C(=O)N[C@@H](CCC(=O)O)C(=O)N1)C(N)=O [FP08018] (Ac-ILE[R8]YEAAFE[S5]QY[Nle]-NH2; staple 4-11)
Expi293 cells [1]
  Helicon in cells ± SD (%): 1.0 ± 0.1%
Expi293 cells [2]
  CellTiter-Glo fold change ± SD: 1.1 ± 0.05

## CCCC[C@H](NC(=O)[C@@H](NC(C)=O)[C@@H](C)CC)C(=O)N[C@@H](C)C(=O)N[C@]1(C)CCCCCCC=CCCC[C@@](C)(C(=O)N[C@@H](CCC(N)=O)C(=O)N[C@@H](Cc2ccc(O)cc2)C(=O)N[C@@H](CC(N)=O)C(N)=O)NC(=O)[C@H](Cc2c[nH]c3ccccc23)NC(=O)[C@H](Cc2ccccc2)NC(=O)[C@H](C)NC(=O)[C@H](C)NC(=O)[C@H](CCC(N)=O)NC(=O)[C@H](Cc2ccc(O)cc2)NC1=O [FP08023] (Ac-I[Nle]A[R8]YQAAFW[S5]QYN-NH2; staple 4-11)
Expi293 cells [1]
  Helicon in cells ± SD (%): 3.0 ± 0.3%
Expi293 cells [2]
  CellTiter-Glo fold change ± SD: 1.2 ± 0.03

## CCCC[C@H](NC(=O)[C@@H](NC(C)=O)[C@@H](C)CC)C(=O)N[C@@H](C)C(=O)N[C@]1(C)CCCCCCC=CCCC[C@@](C)(C(=O)N[C@@H](CCC(N)=O)C(=O)N[C@@H](Cc2ccc(O)cc2)C(=O)N[C@@H](CC(N)=O)C(N)=O)NC(=O)[C@H](Cc2c[nH]c3ccccc23)NC(=O)[C@H](Cc2ccccc2)NC(=O)[C@H](C)NC(=O)[C@H](C)NC(=O)[C@H](CCC(N)=O)NC(=O)[C@H](Cc2ccc(O)cc2)NC1=O [FP08024] (Ac-I[Nle]A[R8]YQAAFW[S5]QYN-NH2; staple 4-11)
Expi293 cells [1]
  Helicon in cells ± SD (%): 6.5 ± 0.5%
Expi293 cells [2]
  CellTiter-Glo fold change ± SD: 1.2 ± 0.00

## CC(C)C[C@H](NC(=O)[C@H](C)NC(=O)CNC(=O)[C@H](CCCCN)NC(=O)[C@H](CCCNC(=N)N)NC(=O)[C@H](C)NC(=O)[C@H](Cc1ccccc1)NC(=O)[C@H](CCCNC(=N)N)NC(=O)[C@H](CCC(N)=O)NC(=O)c1ccc2c(c1)C(=O)OC21c2ccc(O)cc2Oc2cc(O)ccc21)C(=O)N[C@@H](CCCNC(=N)N)C(=O)N[C@@H](CCC(N)=O)C(=O)N[C@@H](CCCCN)C(=O)N[C@@H](CC(N)=O)C(=O)N[C@H](C(N)=O)C(C)C [FP47831, reference compound] (5FAM-QRFARKGALRQKNV-NH2)
Expi293 cells [1]
  Helicon in cells ± SD (%): 0.0 ± 0.0%
Expi293 cells [2]
  CellTiter-Glo fold change ± SD: 1.1 ± 0.02
